These results are taken from ChEMBL document CHEMBL4414672, “Synthesis of certain benzothieno[3,2-d]pyrimidine derivatives as a selective SIRT2 inhibitors” (Eur J Med Chem, 2020).

The subject of one experiment is MCF7. As to the kind of experiment: Cytotoxicity against human MCF7 cells assessed as reduction in cell viability after 24 hrs by MTT assay. The class given is functional, cell-based. As to conditions: MCF7, 24 h. On the technique in general: Tetrazolium dyes change colour on reduction, which living cells bring about.
In experiment [1] the test system is UO-31. Nature of the experiment: Cytotoxicity against human UO31 cells assessed as reduction in cell viability after 24 hrs by MTT assay. The following applies: UO-31, 24 h. It counts as functional, cell-based.
Another experiment deals with CCRF-CEM. Nature of the experiment: Growth inhibition of human CCRF-CEM cells at 10^-5 M incubated for 48 hrs by sulforhodamine B assay. The class given is functional. The following applies: read-out: GI. (In general: In SRB staining, fixed cells bind dye roughly in proportion to their protein.)
For a further experiment, the system named is HL-60(TB). Nature of the experiment: Growth inhibition of human HL-60(TB) cells at 10^-5 M incubated for 48 hrs by sulforhodamine B assay. As to conditions: HL-60, 48 h, read-out: GI. The class given is functional.
A further experiment relates to MOLT-4. Nature of the experiment: Growth inhibition of human MOLT4 cells at 10^-5 M incubated for 48 hrs by sulforhodamine B assay. The class given is functional. The following applies: MOLT-4, 48 h, read-out: GI.
The subject of another experiment is HOP-62. As to the kind of experiment: Growth inhibition of human HOP62 cells at 10^-5 M incubated for 48 hrs by sulforhodamine B assay. The following applies: HOP-62, 48 h, read-out: GI. It counts as functional.
For a further experiment, the system named is NCI-H460. As to the kind of experiment: Growth inhibition of human NCI-H460 cells at 10^-5 M incubated for 48 hrs by sulforhodamine B assay. The class given is functional. As to conditions: NCI-H460, 48 h, read-out: GI.
A further experiment deals with NCI-H522. As to the kind of experiment: Growth inhibition of human NCI-H522 cells at 10^-5 M incubated for 48 hrs by sulforhodamine B assay. It counts as functional. As to conditions: NCI-H522, 48 h, read-out: GI.
The subject of a further experiment is HCT-116. Nature of the experiment: Growth inhibition of human HCT116 cells at 10^-5 M incubated for 48 hrs by sulforhodamine B assay. It counts as functional. As to conditions: HCT-116, 48 h, read-out: GI.
Another experiment relates to HCT-15. As to the kind of experiment: Growth inhibition of human HCT15 cells at 10^-5 M incubated for 48 hrs by sulforhodamine B assay. The class given is functional. The following applies: HCT-15, 48 h, read-out: GI.
The test system of a further experiment is KM12. Nature of the experiment: Growth inhibition of human KM12 cells at 10^-5 M incubated for 48 hrs by sulforhodamine B assay. The following applies: KM12, 48 h, read-out: GI. The class given is functional.
Another experiment relates to SF-295. As to the kind of experiment: Growth inhibition of human SF295 cells at 10^-5 M incubated for 48 hrs by sulforhodamine B assay. The class given is functional. The following applies: SF-295, 48 h, read-out: GI.
Another experiment has as its system SF-539. Nature of the experiment: Growth inhibition of human SF539 cells at 10^-5 M incubated for 48 hrs by sulforhodamine B assay. It counts as functional. As to conditions: SF-539, 48 h, read-out: GI.
A further experiment relates to SNB-19. As to the kind of experiment: Growth inhibition of human SNB19 cells at 10^-5 M incubated for 48 hrs by sulforhodamine B assay. As to conditions: SNB-19, 48 h, read-out: GI. The class given is functional.
For another experiment, the system named is LOX IMVI. As to the kind of experiment: Growth inhibition of human LOXIMVI cells at 10^-5 M incubated for 48 hrs by sulforhodamine B assay. It counts as functional. The following applies: read-out: GI.
Another experiment has as its system MDA-MB-435. As to the kind of experiment: Growth inhibition of human MDA-MB-435 cells at 10^-5 M incubated for 48 hrs by sulforhodamine B assay. It counts as functional. The following applies: MDA-MB-435, 48 h, read-out: GI.
The next experiment relates to SK-MEL-2. Nature of the experiment: Growth inhibition of human SK-MEL-2 cells at 10^-5 M incubated for 48 hrs by sulforhodamine B assay. It counts as functional. As to conditions: SK-MEL-2, 48 h, read-out: GI.
The subject of another experiment is SK-MEL-28. As to the kind of experiment: Growth inhibition of human SK-MEL-28 cells at 10^-5 M incubated for 48 hrs by sulforhodamine B assay. It counts as functional. As to conditions: SK-MEL-28, 48 h, read-out: GI.
Another experiment has as its system OVCAR-4. Nature of the experiment: Growth inhibition of human OVCAR4 cells at 10^-5 M incubated for 48 hrs by sulforhodamine B assay. The class given is functional. As to conditions: OVCAR-4, 48 h, read-out: GI.
The subject of a further experiment is 786-0. As to the kind of experiment: Growth inhibition of human 786-0 cells at 10^-5 M incubated for 48 hrs by sulforhodamine B assay. The class given is functional. The following applies: 786-0, 48 h, read-out: GI.
The subject of experiment [2] is UO-31. Nature of the experiment: Growth inhibition of human UO31 cells at 10^-5 M incubated for 48 hrs by sulforhodamine B assay. It counts as functional. The following applies: UO-31, 48 h, read-out: GI.
The subject of the next experiment is T47D. Nature of the experiment: Growth inhibition of human T47D cells at 10^-5 M incubated for 48 hrs by sulforhodamine B assay. The following applies: read-out: GI. The class given is functional.

≈ marks a conversion by molar mass, not a printed value.

Usually IC50 stands for the point on the concentration scale where inhibition reaches its midpoint. Take `NNC1=Nc2c(sc3ccc(Cl)cc23)C(c2cccc([N+](=O)[O-])c2)N1` (stereo not given): the IC50 came out at 16.4 µg/mL (≈ 43.7 µM) in the experiment on MCF7 and 18.3 µg/mL (≈ 49.1 µM) in the experiment with UO-31 [1]. For the same molecule, the inhibition of growth at 10 µM is -19.8% in the experiment on CCRF-CEM; 2.98% with HL-60(TB); 13% in the experiment with MOLT-4; 6.98% in the experiment with HOP-62; 1.16% in the experiment on NCI-H460; 7.13% in the experiment with NCI-H522. Besides, the inhibition of growth at 10 µM in the experiment with HCT-116 was -0.35%; in the experiment on HCT-15, -5.02%; with KM12, 1.7%; with SF-295, -3.08%; in the experiment on SF-539 it was -1.12%; with SNB-19, -1.03%. Also, the inhibition of growth at 10 µM in the experiment with LOX IMVI was 2.22%; with MDA-MB-435, -7.56%; in the experiment on SK-MEL-2, -8.15%; with SK-MEL-28, -26.6%; with OVCAR-4, 1.81%; in the experiment with 786-0, -3.52%. The inhibition of growth at 10 µM is 42.9% with UO-31 [2] and 12.8% in the experiment with T47D.
`CCOC(=O)CSC1=Nc2c(sc3ccc(Cl)cc23)C(c2cccc([N+](=O)[O-])c2)N1` (stereo not given): the IC50 with MCF7 was 22.1 µg/mL (≈ 47.9 µM); in the experiment on UO-31 [1], 11.8 µg/mL (≈ 25.6 µM). Further, the inhibition of growth at 10 µM in the experiment with CCRF-CEM is -8.55%; in the experiment on HL-60(TB), 3.55%; with MOLT-4 it was 14.6%; in the experiment with HOP-62 it was 19.6%; with NCI-H460 it was -0.74%; in the experiment on NCI-H522, 4.34%. Besides, the inhibition of growth at 10 µM in the experiment with HCT-116 is 3.88%; in the experiment with HCT-15 it was -2.2%; in the experiment with KM12, -0.19%; in the experiment on SF-295, -0.53%; in the experiment with SF-539 it was -3.84%; in the experiment with SNB-19, -0.3%. Also, the inhibition of growth at 10 µM is 0.14% in the experiment on LOX IMVI; -10.6% in the experiment on MDA-MB-435; -6.23% with SK-MEL-2; -14% in the experiment on SK-MEL-28; -4.53% in the experiment on OVCAR-4; -2.24% in the experiment on 786-0. Further, the inhibition of growth at 10 µM amounted to 44.7% in the experiment on UO-31 [2] and 22.6% with T47D.
For `O=[N+]([O-])c1cccc(C2NC(N3CCOCC3)=Nc3c2sc2ccc(Cl)cc32)c1` (stereo not given), the IC50 with MCF7 stood at 10.4 µg/mL (≈ 24.3 µM); in the experiment with UO-31 [1], 3.11 µg/mL (≈ 7.25 µM). Moreover, the inhibition of growth at 10 µM in the experiment on CCRF-CEM is -3.36%; in the experiment with HL-60(TB) it was -10.4%; with MOLT-4 it was 1.35%; with HOP-62 it was 9.52%; with NCI-H460, 4.82%; in the experiment with NCI-H522, 3.46%. Also, the inhibition of growth at 10 µM is 6.8% in the experiment with HCT-116; -7.82% in the experiment with HCT-15; 4.2% in the experiment with KM12; -4.89% in the experiment on SF-295; 6.94% with SF-539; 2.54% in the experiment on SNB-19. The inhibition of growth at 10 µM in the experiment on LOX IMVI was 3.74%; in the experiment with MDA-MB-435, -6.59%; in the experiment with SK-MEL-2 it was -1.1%; with SK-MEL-28, -22.1%; in the experiment on OVCAR-4 it was 1.77%; in the experiment on 786-0 it was -5.37%. Further, the inhibition of growth at 10 µM is 41.8% with UO-31 [2] and 21.6% in the experiment with T47D.
Consider `O=C1SC2=Nc3c(sc4ccc(Cl)cc34)C(c3ccc4ccccc4c3)N2C1=O` (stereo not given), for which the IC50 in the experiment with MCF7 turned out to be 23.3 µg/mL (≈ 53.6 µM); with UO-31 [1], 46.7 µg/mL (≈ 107 µM). In addition, the inhibition of growth at 10 µM in the experiment with CCRF-CEM was -5.01%; in the experiment on HL-60(TB) it was -4.12%; with MOLT-4 it was 11.9%; in the experiment with HOP-62, 8.58%; in the experiment on NCI-H460, 4.51%; in the experiment on NCI-H522, 16.6%. The inhibition of growth at 10 µM is 23.4% in the experiment with HCT-116; 7.44% in the experiment on HCT-15; 7.8% in the experiment with KM12; -2.51% in the experiment with SF-295; 5.81% with SF-539; 2.61% with SNB-19. In addition, the inhibition of growth at 10 µM with LOX IMVI is 1.85%; in the experiment with MDA-MB-435, 2.92%; in the experiment with SK-MEL-2 it was 14.1%; in the experiment with SK-MEL-28, -13.2%; in the experiment with OVCAR-4, 23.6%; with 786-0, 2.6%. The results for the inhibition of growth at 10 µM with UO-31 [2] and with T47D were 44.4% and 24.5%, respectively.
For the molecule `N#Cc1cnn(C2=Nc3c(sc4ccc(Cl)cc34)C(c3cccc([N+](=O)[O-])c3)N2)c1N` (stereo not given), the IC50 came out at 11.9 µg/mL (≈ 26.5 µM) in the experiment on MCF7 and 32.5 µg/mL (≈ 72.2 µM) in the experiment on UO-31 [1]. The inhibition of growth at 10 µM in the experiment with CCRF-CEM was -11.9%; in the experiment with HL-60(TB), -5.54%; in the experiment on MOLT-4, 8.24%; in the experiment with HOP-62, 5.61%; in the experiment with NCI-H460, -1.07%; in the experiment with NCI-H522, 4.1%. In addition, the inhibition of growth at 10 µM in the experiment with HCT-116 was 5.22%; in the experiment on HCT-15, -4.58%; in the experiment with KM12, 3.84%; in the experiment on SF-295, -2.52%; in the experiment with SF-539, 2.87%; in the experiment with SNB-19, -2.52%. Besides, the inhibition of growth at 10 µM with LOX IMVI was 12.5%; in the experiment with MDA-MB-435 it was -7.15%; in the experiment with SK-MEL-2, -5.14%; with SK-MEL-28, -13.6%; in the experiment with OVCAR-4, -1.38%; in the experiment with 786-0, 1%. Moreover, the values for the inhibition of growth at 10 µM with UO-31 [2] and with T47D were 41.2% and 10.1%, respectively.
In the case of `N=C1Nc2c(sc3ccc(Cl)cc23)C(c2cccc([N+](=O)[O-])c2)N1` (stereo not given), the inhibition of growth at 10 µM is 8.41% in the experiment on CCRF-CEM; 5.44% in the experiment on HL-60(TB); 21.2% in the experiment with MOLT-4; -6.16% with HOP-62; 14.7% in the experiment with NCI-H460; -4.45% in the experiment with NCI-H522. The inhibition of growth at 10 µM with HCT-116 was 2.65%; in the experiment on HCT-15 it was -4.21%; with KM12 it was 6.62%; in the experiment on SF-295, -5.78%; in the experiment with SF-539, 1.35%; in the experiment on SNB-19, 16.8%. Besides, the inhibition of growth at 10 µM in the experiment on LOX IMVI is -9.93%; with MDA-MB-435, -4.98%; in the experiment with SK-MEL-2, -19.5%; in the experiment with SK-MEL-28, 4.08%; in the experiment with OVCAR-4, -4.7%; in the experiment with 786-0 it was 16.5%. Also, the inhibition of growth at 10 µM is 11.1% in the experiment with UO-31 [2] and 1.02% in the experiment with T47D.
